Earlier results on one compound are cited in patent publication US7012096B2, “Composition for pain mediation and apparatus and method of use thereof” (Palladin Healthcare International, Inc., priority 1998, dated 2006).

In one data set the test system is human fibroblasts. The following applies: in vitro tissue culture.
For a further data set, the system named is human keratinocytes. The following applies: in vitro tissue culture.

For `CC(=O)O` [acetic acid], in the data set on human fibroblasts, the “Concentration toxic to human fibroblasts” value is on record as “above 0.025%”. Also, in the data set on human keratinocytes, the “Concentration toxic to human keratinocytes” value was “above 0.025%”.
